From PubChem BioAssay (NCI)
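All cell lines were grown in 96-well plates and treated with compound for 48 hours. Definition used: TGI = concentration required for complete inhibition of growth.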

Tests used:
Assay in all cases: growth of human tumour cells (NCI), 48 h
NCI/ADR-RES ovarian = tested on: NCI/ADR-RES ovarian
HOP-92 NSCLC = tested on: HOP-92 NSCLC
BT-549 breast = tested on: BT-549 breast
LOX IMVI melanoma = tested on: LOX IMVI melanoma
KM12 colon = tested on: KM12 colon
SK-OV-3 ovarian = tested on: SK-OV-3 ovarian
NCI-H226 lung = tested on: NCI-H226 lung
TK-10 renal = tested on: TK-10 renal
DU-145 prostate = tested on: DU-145 prostate
SF-539 CNS = tested on: SF-539 CNS
MDA-MB-435 = tested on: MDA-MB-435
786-0 renal = tested on: 786-0 renal
ACHN renal = tested on: ACHN renal
T-47D breast = tested on: T-47D breast
HS 578T breast = tested on: HS 578T breast
COLO 205 colon = tested on: COLO 205 colon
HCT-116 colon = tested on: HCT-116 colon
OVCAR-8 ovarian = tested on: OVCAR-8 ovarian
UACC-62 melanoma = tested on: UACC-62 melanoma
SK-MEL-5 melanoma = tested on: SK-MEL-5 melanoma
OVCAR-5 ovarian = tested on: OVCAR-5 ovarian
SK-MEL-28 melanoma = tested on: SK-MEL-28 melanoma
IGROV1 ovarian = tested on: IGROV1 ovarian
HOP-62 NSCLC = tested on: HOP-62 NSCLC
SW-620 colon = tested on: SW-620 colon
UACC-257 melanoma = tested on: UACC-257 melanoma
M14 melanoma = tested on: M14 melanoma
K-562 leukemia = tested on: K-562 leukemia
NCI-H522 lung = tested on: NCI-H522 lung
MDA-N = tested on: MDA-N
MOLT-4 leukemia = tested on: MOLT-4 leukemia
MCF7 breast = tested on: MCF7 breast
CAKI-1 renal = tested on: CAKI-1 renal
PC-3 prostate = tested on: PC-3 prostate
SN12C renal = tested on: SN12C renal
UO-31 renal = tested on: UO-31 renal
SNB-19 CNS = tested on: SNB-19 CNS
SNB-75 CNS = tested on: SNB-75 CNS
HT29 colon = tested on: HT29 colon
SK-MEL-2 melanoma = tested on: SK-MEL-2 melanoma
HL-60(TB) leukemia = tested on: HL-60(TB) leukemia
SF-295 CNS = tested on: SF-295 CNS
EKVX NSCLC = tested on: EKVX NSCLC
RXF 393 renal = tested on: RXF 393 renal
U251 CNS = tested on: U251 CNS
HCC-2998 colon = tested on: HCC-2998 colon
OVCAR-3 ovarian = tested on: OVCAR-3 ovarian
SR leukemia = tested on: SR leukemia
A549 NSCLC = tested on: A549 NSCLC
SF-268 CNS = tested on: SF-268 CNS
A498 renal = tested on: A498 renal
NCI-H460 lung = tested on: NCI-H460 lung
NCI-H23 lung = tested on: NCI-H23 lung
MDA-MB-231 breast = tested on: MDA-MB-231 breast
HCT-15 colon = tested on: HCT-15 colon
CCRF-CEM leukemia = tested on: CCRF-CEM leukemia
MALME-3M melanoma = tested on: MALME-3M melanoma
OVCAR-4 ovarian = tested on: OVCAR-4 ovarian
RPMI-8226 leukemia = tested on: RPMI-8226 leukemia

O=C1C(Cl)=C(N2C(=O)CCC2=O)C(=O)c2ccccc21
TGI (NCI/ADR-RES ovarian): > 100 µM | TGI (HOP-92 NSCLC): 26.6 µM | TGI (BT-549 breast): 37.3 µM | TGI (LOX IMVI melanoma): 86.4 µM | TGI (KM12 colon): > 100 µM | TGI (SK-OV-3 ovarian): > 100 µM | TGI (NCI-H226 lung): > 100 µM | TGI (TK-10 renal): > 100 µM | TGI (DU-145 prostate): 95 µM | TGI (SF-539 CNS): > 100 µM | TGI (MDA-MB-435): 44 µM | TGI (786-0 renal): 37.9 µM | TGI (ACHN renal): 29.1 µM | TGI (T-47D breast): > 100 µM | TGI (HS 578T breast): > 100 µM | TGI (COLO 205 colon): 32.8 µM | TGI (HCT-116 colon): 49.7 µM | TGI (OVCAR-8 ovarian): > 100 µM | TGI (UACC-62 melanoma): > 100 µM | TGI (SK-MEL-5 melanoma): 36.7 µM | TGI (OVCAR-5 ovarian): 49.7 µM | TGI (SK-MEL-28 melanoma): 48 µM | TGI (IGROV1 ovarian): > 100 µM | TGI (HOP-62 NSCLC): > 100 µM | TGI (SW-620 colon): 56.9 µM | TGI (UACC-257 melanoma): 57.5 µM | TGI (M14 melanoma): > 100 µM | TGI (K-562 leukemia): 17.1 µM | TGI (NCI-H522 lung): 59.6 µM | TGI (MDA-N): 35 µM | TGI (MOLT-4 leukemia): > 100 µM | TGI (MCF7 breast): 33.7 µM | TGI (CAKI-1 renal): 38.1 µM | TGI (PC-3 prostate): > 100 µM | TGI (SN12C renal): 33.6 µM | TGI (UO-31 renal): 34.4 µM | TGI (SNB-19 CNS): > 100 µM | TGI (SNB-75 CNS): > 100 µM | TGI (HT29 colon): > 100 µM | TGI (SK-MEL-2 melanoma): > 100 µM | TGI (HL-60(TB) leukemia): 6.73 µM | TGI (SF-295 CNS): > 100 µM | TGI (EKVX NSCLC): > 100 µM | TGI (RXF 393 renal): 45.7 µM | TGI (U251 CNS): 63.3 µM | TGI (HCC-2998 colon): 60.3 µM | TGI (OVCAR-3 ovarian): 34.3 µM | TGI (SR leukemia): 82.5 µM | TGI (A549 NSCLC): > 100 µM | TGI (SF-268 CNS): > 100 µM | TGI (A498 renal): > 100 µM | TGI (NCI-H460 lung): > 100 µM | TGI (NCI-H23 lung): 79.8 µM | TGI (MDA-MB-231 breast): > 100 µM | TGI (HCT-15 colon): 27.2 µM | TGI (CCRF-CEM leukemia): 21.8 µM

CC[C@]12C=CCN3CC[C@@]4(c5cc(N=O)c(OC)cc5N(C)[C@H]4[C@@](O)(C(=O)NC(Cc4c[nH]c5ccccc45)C(=O)OC)[C@@H]1O)[C@@H]32 (some centres not stated)
TGI (NCI/ADR-RES ovarian): > 100 µM | TGI (HOP-92 NSCLC): 28.8 µM | TGI (MALME-3M melanoma): 34.8 µM | TGI (BT-549 breast): 29.8 µM | TGI (LOX IMVI melanoma): 47 µM | TGI (KM12 colon): 26.1 µM | TGI (SK-OV-3 ovarian): 38.9 µM | TGI (NCI-H226 lung): 52.4 µM | TGI (TK-10 renal): 31.7 µM | TGI (DU-145 prostate): 30.9 µM | TGI (SF-539 CNS): 30.5 µM | TGI (MDA-MB-435): 33.3 µM | TGI (786-0 renal): > 100 µM | TGI (ACHN renal): 35.5 µM | TGI (T-47D breast): 32 µM | TGI (HS 578T breast): > 100 µM | TGI (COLO 205 colon): 29.2 µM | TGI (HCT-116 colon): 28.3 µM | TGI (OVCAR-8 ovarian): 42.6 µM | TGI (UACC-62 melanoma): 29.6 µM | TGI (SK-MEL-5 melanoma): 28 µM | TGI (OVCAR-5 ovarian): 43.1 µM | TGI (SK-MEL-28 melanoma): 86.8 µM | TGI (IGROV1 ovarian): 34.9 µM | TGI (HOP-62 NSCLC): 34.6 µM | TGI (SW-620 colon): 29.7 µM | TGI (UACC-257 melanoma): 29.6 µM | TGI (M14 melanoma): 41.1 µM | TGI (K-562 leukemia): 31.4 µM | TGI (NCI-H522 lung): 6.75 µM | TGI (MDA-N): 46.6 µM | TGI (MOLT-4 leukemia): 27.9 µM | TGI (MCF7 breast): 35.2 µM | TGI (CAKI-1 renal): 31.9 µM | TGI (PC-3 prostate): 23.9 µM | TGI (SN12C renal): 71.5 µM | TGI (UO-31 renal): 45.3 µM | TGI (SNB-19 CNS): 71.3 µM | TGI (SNB-75 CNS): 29.4 µM | TGI (HT29 colon): 29.3 µM | TGI (SK-MEL-2 melanoma): 34.1 µM | TGI (HL-60(TB) leukemia): 14.7 µM | TGI (SF-295 CNS): 32.7 µM | TGI (EKVX NSCLC): 52.2 µM | TGI (RXF 393 renal): 26.9 µM | TGI (U251 CNS): 21.7 µM | TGI (HCC-2998 colon): 29 µM | TGI (OVCAR-3 ovarian): 28.6 µM | TGI (OVCAR-4 ovarian): 29.2 µM | TGI (SR leukemia): 54.7 µM | TGI (A549 NSCLC): > 100 µM | TGI (SF-268 CNS): > 100 µM | TGI (A498 renal): > 100 µM | TGI (NCI-H460 lung): 38.7 µM | TGI (NCI-H23 lung): 38.5 µM | TGI (MDA-MB-231 breast): 34.7 µM | TGI (HCT-15 colon): 44.7 µM | TGI (CCRF-CEM leukemia): 24.3 µM

CO[C@@H]1C[C@H](OC(N)=O)[C@@H]2C=C[C@@H]3/C=C(C)/C=C/[C@@H](C)[C@H]([C@H](C)[C@H](O)[C@@H](C)NC(C)=O)OC(=O)/C=C/C=C(C)\C=C\[C@]3(C)[C@@H]2C1
TGI (NCI/ADR-RES ovarian): 6.11 µM | TGI (HOP-92 NSCLC): < 0.01 µM | TGI (MALME-3M melanoma): 3.53 µM | TGI (BT-549 breast): > 28.5 µM | TGI (LOX IMVI melanoma): < 0.01 µM | TGI (SK-OV-3 ovarian): 3.66 µM | TGI (NCI-H226 lung): < 0.01 µM | TGI (TK-10 renal): 3.55 µM | TGI (DU-145 prostate): 9.01 µM | TGI (SF-539 CNS): 1.46 µM | TGI (MDA-MB-435): 4.36 µM | TGI (786-0 renal): 6.62 µM | TGI (ACHN renal): 2.67 µM | TGI (T-47D breast): 11 µM | TGI (HS 578T breast): 0.264 µM | TGI (COLO 205 colon): 11.1 µM | TGI (HCT-116 colon): 1.25 µM | TGI (OVCAR-8 ovarian): 13.6 µM | TGI (UACC-62 melanoma): 1.4 µM | TGI (OVCAR-5 ovarian): 9.19 µM | TGI (SK-MEL-28 melanoma): 1.84 µM | TGI (IGROV1 ovarian): 3.28 µM | TGI (HOP-62 NSCLC): 4.81 µM | TGI (SW-620 colon): 10.3 µM | TGI (UACC-257 melanoma): 3.04 µM | TGI (M14 melanoma): 1.62 µM | TGI (NCI-H522 lung): 1.44 µM | TGI (MDA-N): 6.03 µM | TGI (RPMI-8226 leukemia): 3.78 µM | TGI (MCF7 breast): 11.3 µM | TGI (CAKI-1 renal): 2.67 µM | TGI (PC-3 prostate): 10.8 µM | TGI (SN12C renal): 8.72 µM | TGI (UO-31 renal): 0.645 µM | TGI (SNB-19 CNS): 17.7 µM | TGI (HT29 colon): 1.93 µM | TGI (SK-MEL-2 melanoma): 7.09 µM | TGI (HL-60(TB) leukemia): 3.32 µM | TGI (SF-295 CNS): 1.51 µM | TGI (EKVX NSCLC): 5.34 µM | TGI (RXF 393 renal): 3.06 µM | TGI (U251 CNS): 1.61 µM | TGI (HCC-2998 colon): 1.39 µM | TGI (OVCAR-3 ovarian): 3.65 µM | TGI (OVCAR-4 ovarian): 9.75 µM | TGI (SR leukemia): 0.887 µM | TGI (A549 NSCLC): 10 µM | TGI (SF-268 CNS): 4.95 µM | TGI (A498 renal): 0.496 µM | TGI (NCI-H460 lung): 1.58 µM | TGI (NCI-H23 lung): 13.1 µM | TGI (MDA-MB-231 breast): 0.0634 µM | TGI (HCT-15 colon): 6.77 µM
